Values quoted from earlier work as cited in patent US6258550A, “Polypeptides that include conformation-constraining groups which flank a protein-protein interaction site” (Virginia Commonwealth University, priority 1999, dated 2001).
Where a SMILES comes first, the peptide text is derived from it.

Tested on: receptors of sweet tasting papillae
Settings: comparison sweetener

- Sweetness relative to sugar: 160 times sweeter than sugar
SMILES: COC(=O)[C@H](Cc1ccccc1)NC(=O)[C@@H](N)CC(=O)O [aspartame] (H-Asp-Phe-OMe)
